This assay deals with mouse leukemia P388 cells. As to the kind of experiment: Assay of antitumor activity: increase in life span of mice implanted with P388 leukemia. The assay is classed as in vivo. The settings on record: CDF1 mice, P388 cells 10^6 cells/mouse i.p.; compound i.p. on first and fifth day after implantation; observed for 60 days; ILS from median survival days. On the procedure: (1) Assay of antitumor activity
0.1 ml (10^6 cells/mouse) portions of mouse leukemia P388 cells were implanted intraperitoneally into 7-week-old CDF1 mice. […] From the results were calculated increases in life span (ILS, %) according to the following equation. In the following equation, T means median survival days of the chemical administration group, and C means median survival days of the control group. [formula]
Antitumor activity is shown as the relative ratio in the case where the ILS of dolastatin 10 is supposed to be 100.

The record followed here is patent US5767237A, “Peptide derivatives” (Teikoku Hormone Mfg. Co., Ltd., priority 1993, dated 1998).

In the case of dolastatin 10, the “Antitumor activity (relative ratio of ILS, ILS of dolastatin 10 supposed to be 100)” value came to 100.
